Experiments:
[1] = biological target: T1, Bcl-2-like protein 1 (Homo sapiens, UniProt Q07817); assay: Displacement of Bad-derived peptide from Bcl-xL by fluorescence polarization assay
[2] = biological target: Apoptosis regulator Bcl-2 (Homo sapiens, UniProt P10415); assay: Displacement of Bax-derived peptide from Bcl2 by fluorescence polarization assay
[3] = biological target: T1, Bcl-2-like protein 1; assay: Displacement of Bad-derived peptide from Bcl-xL by FPA in presence of 10% human serum
[4] = tested on: FL5.12; assay: Reversal of cytokine withdrawal protection in IL3 dependent Bcl-xL overexpressing mouse FL5.12 cells in presence of 3% FBS; format: functional

T1 sequence (Q07817 whole entry): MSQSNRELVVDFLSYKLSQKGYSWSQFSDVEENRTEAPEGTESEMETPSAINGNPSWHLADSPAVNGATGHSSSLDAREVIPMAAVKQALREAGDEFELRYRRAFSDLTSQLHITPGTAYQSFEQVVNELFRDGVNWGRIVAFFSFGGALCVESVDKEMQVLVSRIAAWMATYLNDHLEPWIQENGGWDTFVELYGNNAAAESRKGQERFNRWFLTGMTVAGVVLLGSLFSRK
Sequence of Apoptosis regulator Bcl-2 (P10415 whole entry): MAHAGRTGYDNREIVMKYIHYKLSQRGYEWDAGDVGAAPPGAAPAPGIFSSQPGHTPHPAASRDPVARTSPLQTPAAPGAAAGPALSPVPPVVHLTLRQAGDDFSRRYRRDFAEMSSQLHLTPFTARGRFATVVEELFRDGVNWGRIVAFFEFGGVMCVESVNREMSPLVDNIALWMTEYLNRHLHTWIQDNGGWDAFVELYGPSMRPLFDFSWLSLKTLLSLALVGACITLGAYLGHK

Ki [1] [nM]	Ki [2] [nM]	IC50 [3] [nM]	EC50 [4] [nM]	Compound
0.8		360		CC1(C)CCN(c2ccc(C(=O)NS(=O)(=O)c3ccc(NC(C)(C)CSc4ccccc4)c([N+](=O)[O-])c3)cc2)CC1
< 0.5	< 1	< 60		CSc1ccccc1CN1CCN(c2ccc(C(=O)NS(=O)(=O)c3ccc(N[C@H](CCN(C)C)CSc4ccccc4)c([N+](=O)[O-])c3)cc2)CC1
3	4.5	140		Cc1ccccc1CN1CCN(c2ccc(C(=O)NS(=O)(=O)c3ccc(N[C@H](CCN(C)C)CSc4ccccc4)c([N+](=O)[O-])c3)cc2)CC1
1.7	6.5			CN(C)CC[C@H](CSc1ccccc1)Nc1ccc(S(=O)(=O)NC(=O)c2ccc(N3CCC4(CC3)CC(Cc3ccccc3)=NO4)cc2)cc1[N+](=O)[O-]
1.3	20	312		CCCCCC1(OC)CCN(c2ccc(C(=O)NS(=O)(=O)c3ccc(N[C@H](CCN(C)C)CSc4ccccc4)c([N+](=O)[O-])c3)cc2)CC1
0.9	4.6	170		CN(C)CC[C@H](CSc1ccccc1)Nc1ccc(S(=O)(=O)NC(=O)c2ccc(N3CCN(Cc4ccccc4S(C)(=O)=O)CC3)cc2)cc1[N+](=O)[O-]
3.7	9.6			CC1OC2(CCN(c3ccc(C(=O)NS(=O)(=O)c4ccc(N[C@H](CCN(C)C)CSc5ccccc5)c([N+](=O)[O-])c4)cc3)CC2)N(Cc2ccccc2)C1=O (some centres not stated)
< 0.5	1.5	< 60		COC1(Cc2ccccc2Br)CCN(c2ccc(C(=O)NS(=O)(=O)c3ccc(N[C@H](CCN(C)C)CSc4ccccc4)c([N+](=O)[O-])c3)cc2)CC1
0.8	6.6	300		COC1(CC2CCCCC2)CCN(c2ccc(C(=O)NS(=O)(=O)c3ccc(N[C@H](CCN(C)C)CSc4ccccc4)c([N+](=O)[O-])c3)cc2)CC1
1.1	1.6	75		COc1ccccc1CC1(OC)CCN(c2ccc(C(=O)NS(=O)(=O)c3ccc(N[C@H](CCN(C)C)CSc4ccccc4)c([N+](=O)[O-])c3)cc2)CC1
4.4	35.2			CN(C)CC[C@H](CSc1ccccc1)Nc1ccc(S(=O)(=O)NC(=O)c2ccc(N3CCC4(CC3)CC(c3ccccc3)=NO4)cc2)cc1[N+](=O)[O-]
1.3	68	2800		CN(C)CC[C@H](CSc1ccccc1)Nc1ccc(S(=O)(=O)NC(=O)c2ccc(N3CCC(=Cc4cccnc4)CC3)cc2)cc1[N+](=O)[O-]
1.8	8.1	150		COC1(Cc2ccccc2)CCN(c2ccc(C(=O)NS(=O)(=O)c3ccc(N[C@H](CCN(C)C)CSc4ccccc4)c([N+](=O)[O-])c3)cc2)CC1
< 0.5	1.8	170		COC1(Cc2cccc(Cl)c2)CCN(c2ccc(C(=O)NS(=O)(=O)c3ccc(N[C@H](CCN(C)C)CSc4ccccc4)c([N+](=O)[O-])c3)cc2)CC1
2.6	39.8	350		CN(C)CC[C@H](CSc1ccccc1)Nc1ccc(S(=O)(=O)NC(=O)c2ccc(N3CCN(Cc4ccccc4)CC3)cc2)cc1[N+](=O)[O-]
< 0.5	1.4	71		COC1(Cc2ccccc2C)CCN(c2ccc(C(=O)NS(=O)(=O)c3ccc(N[C@H](CCN(C)C)CSc4ccccc4)c([N+](=O)[O-])c3)cc2)CC1
4.6	16	440		COC1(CC(C)(C)C)CCN(c2ccc(C(=O)NS(=O)(=O)c3ccc(N[C@H](CCN(C)C)CSc4ccccc4)c([N+](=O)[O-])c3)cc2)CC1
3.6	46	700		CN(C)CC[C@H](CSc1ccccc1)Nc1ccc(S(=O)(=O)NC(=O)c2ccc(N3CCC(=Cc4ccccn4)CC3)cc2)cc1[N+](=O)[O-]
0.9	2.7	200		COC1(Cc2ccc(Cl)cc2)CCN(c2ccc(C(=O)NS(=O)(=O)c3ccc(N[C@H](CCN(C)C)CSc4ccccc4)c([N+](=O)[O-])c3)cc2)CC1
0.9	3.1	79		COC1(Cc2ccccc2F)CCN(c2ccc(C(=O)NS(=O)(=O)c3ccc(N[C@H](CCN(C)C)CSc4ccccc4)c([N+](=O)[O-])c3)cc2)CC1
< 0.5	< 1	62		COC1(Cc2ccccc2Cl)CCN(c2ccc(C(=O)NS(=O)(=O)c3ccc(N[C@H](CCN(C)C)CSc4ccccc4)c([N+](=O)[O-])c3)cc2)CC1
6.1	56	360		COC1(CC(C)C)CCN(c2ccc(C(=O)NS(=O)(=O)c3ccc(N[C@H](CCN(C)C)CSc4ccccc4)c([N+](=O)[O-])c3)cc2)CC1
< 0.5	3.4	520		CN(C)CC[C@H](CSc1ccccc1)Nc1ccc(S(=O)(=O)NC(=O)c2ccc(N3CCC(=Cc4ccc(F)cc4)CC3)cc2)cc1[N+](=O)[O-]

The next lines start with the compound.

Compound	Ki [1] [nM]	Ki [2] [nM]	IC50 [3] [nM]	EC50 [4] [nM]
COC1(Cc2ccc(-c3ccccc3)cc2)CCN(c2ccc(C(=O)NS(=O)(=O)c3ccc(N[C@H](CCN(C)C)CSc4ccccc4)c([N+](=O)[O-])c3)cc2)CC1	0.9	< 1	160	
COc1ccccc1CN1CCN(c2ccc(C(=O)NS(=O)(=O)c3ccc(N[C@H](CCN(C)C)CSc4ccccc4)c([N+](=O)[O-])c3)cc2)CC1	< 0.5	3.2	80	
CN(C)CC[C@H](CSc1ccccc1)Nc1ccc(S(=O)(=O)NC(=O)c2ccc(N3CCC(=Cc4ccccc4F)CC3)cc2)cc1[N+](=O)[O-]	< 0.5	2.5	750	
CN(C)CC[C@H](CSc1ccccc1)Nc1ccc(S(=O)(=O)NC(=O)c2ccc(N3CCC(=Cc4ccccc4-c4ccccc4)CC3)cc2)cc1[N+](=O)[O-]	< 0.5	< 1	83	
CN(C)CC[C@H](CSc1ccccc1)Nc1ccc(S(=O)(=O)NC(=O)c2ccc(N3CCN(Cc4ccccc4-c4ccc(F)cc4)CC3)cc2)cc1[N+](=O)[O-]	< 0.5	< 1	< 60	710
CN(C)CC[C@H](CSc1ccccc1)Nc1ccc(S(=O)(=O)NC(=O)c2ccc(N3CCC(=Cc4ccccc4Cl)CC3)cc2)cc1[N+](=O)[O-]	< 0.5	0.7	700	
CN(C)CC[C@H](CSc1ccccc1)Nc1ccc(S(=O)(=O)NC(=O)c2ccc(N3CCC(=Cc4ccccc4C#N)CC3)cc2)cc1[N+](=O)[O-]	< 0.5	13	520	
CN(C)CC[C@H](CSc1ccccc1)Nc1ccc(S(=O)(=O)NC(=O)c2ccc(N3CCN(Cc4ccccc4NC4CCCCC4)CC3)cc2)cc1[N+](=O)[O-]	0.6	3.5	370	
CN(C)CC[C@H](CSc1ccccc1)Nc1ccc(S(=O)(=O)NC(=O)c2ccc(N3CCN(Cc4ccccc4-c4cccnc4)CC3)cc2)cc1[N+](=O)[O-]	< 0.5	1	81	
CN(C)CC[C@H](CSc1ccccc1)Nc1ccc(S(=O)(=O)NC(=O)c2ccc(N3CCC(=Cc4ccc(C(F)(F)F)cc4)CC3)cc2)cc1[N+](=O)[O-]	1.4	9.4	1300	
CN(C)CC[C@H](CSc1ccccc1)Nc1ccc(S(=O)(=O)NC(=O)c2ccc(N3CCC(=Cc4ccc(Cl)cc4)CC3)cc2)cc1[N+](=O)[O-]	< 0.5	2.1	510	
CN(C)CC[C@H](CSc1ccccc1)Nc1ccc(S(=O)(=O)NC(=O)c2ccc(N3CCN(Cc4ccccc4-c4ccc(-c5ccccc5)cc4)CC3)cc2)cc1[N+](=O)[O-]	1	< 1	100	120
CN(C)CC[C@H](CSc1ccccc1)Nc1ccc(S(=O)(=O)NC(=O)c2ccc(N3CCN(Cc4ccccc4-c4ccccc4)CC3)cc2)cc1[N+](=O)[O-]	< 0.5	< 1	< 60	1200
CN(C)CC[C@H](CSc1ccccc1)Nc1ccc(S(=O)(=O)NC(=O)c2ccc(N3CCN(Cc4ccccc4-c4ccc(Cl)cc4)CC3)cc2)cc1[N+](=O)[O-] [ABT 737]				220
CN(C)CC[C@H](CSc1ccccc1)Nc1ccc(S(=O)(=O)NC(=O)c2ccc(N3CCN(Cc4ccccc4C(F)(F)F)CC3)cc2)cc1[N+](=O)[O-]	< 0.5	< 1	85	
COc1ccccc1C=C1CCN(c2ccc(C(=O)NS(=O)(=O)c3ccc(N[C@H](CCN(C)C)CSc4ccccc4)c([N+](=O)[O-])c3)cc2)CC1	0.6	2	760	
COC1(Cc2ccccc2-c2ccccc2)CCN(c2ccc(C(=O)NS(=O)(=O)c3ccc(N[C@H](CCN(C)C)CSc4ccccc4)c([N+](=O)[O-])c3)cc2)CC1	< 0.5	< 1	< 60	
CN(C)CC[C@H](CSc1ccccc1)Nc1ccc(S(=O)(=O)NC(=O)c2ccc(N3CCN(Cc4ccccc4N4CCOCC4)CC3)cc2)cc1[N+](=O)[O-]	< 0.5	< 1	< 60	
CN(C)CC[C@H](CSc1ccccc1)Nc1ccc(S(=O)(=O)NC(=O)c2ccc(N3CCC(=Cc4ccccc4C(F)(F)F)CC3)cc2)cc1[N+](=O)[O-]	< 0.5	2	300	
CN(C)CC[C@H](CSc1ccccc1)Nc1ccc(S(=O)(=O)NC(=O)c2ccc(N3CCN(Cc4ccccc4C4CCCCC4)CC3)cc2)cc1[N+](=O)[O-]	< 0.5	< 1	61	
CN(C)CC[C@H](CSc1ccccc1)Nc1ccc(S(=O)(=O)NC(=O)c2ccc(N3CCN(C(=O)c4ccccc4)CC3)cc2)cc1[N+](=O)[O-]	< 1	61.9		
CN(C)CC[C@H](CSc1ccccc1)Nc1ccc(S(=O)(=O)NC(=O)c2ccc(N3CCN(C(=O)Nc4ccccc4)CC3)cc2)cc1[N+](=O)[O-]	2.5	300		
Cc1ccc(S(=O)(=O)N2CCN(c3ccc(C(=O)NS(=O)(=O)c4ccc(N[C@H](CCN(C)C)CSc5ccccc5)c([N+](=O)[O-])c4)cc3)CC2)cc1	4	6.1		
